Measurements reported in patent US10004701B2, “Methods and compositions for treating infection” (UNIVERSITY OF ROCHESTER, priority 2012, dated 2018).
Where a name gives a salt, the structure may show the parent alone. Read-outs that look alike come from different tables or passages of the source.

What was measured:
Assay in all cases: AK assay 384-well format, Prestwick library screening
E. faecium = type: cell-based, Enterococcus faecium; details: 50 μM final drug concentration; for fold induction at 50 µM: Enterococcus faecium, 3 h
P. aeruginosa = type: cell-based, Pseudomonas aeruginosa; details: 50 μM final drug concentration; for fold induction at 50 µM: Pseudomonas aeruginosa, 3 h
E. coli = type: cell-based, Escherichia coli; details: 50 μM final drug concentration; for fold induction at 50 µM: Escherichia coli, 3 h
[1] = test system: S. aureus strain USA300-0114; type: cell-based, Staphylococcus aureus; details: 50 μM final drug concentration; for fold induction at 50 µM: Staphylococcus aureus, USA300, 3 h
K. pneumoniae = type: cell-based, Klebsiella pneumoniae; details: 50 μM final drug concentration; for fold induction at 50 µM: Klebsiella pneumoniae, 3 h
E. cloacae = type: cell-based, Enterobacter cloacae; details: 50 μM final drug concentration; for fold induction at 50 µM: Enterobacter cloacae, 3 h
[2] = test system: A. baumannii strain 98-37-09; type: cell-based, Acinetobacter baumannii; details: 50 μM final drug concentration; for fold induction at 50 µM: Acinetobacter baumannii, 983709, 3 h
[3] = planktonic, cutoff for positive-scoring molecules 3-fold increase, read-out: AK-based Prestwick Library Screening Results, E. faecium (fold increase in extracellular AK activity)
[4] = planktonic, cutoff for positive-scoring molecules 3-fold increase, read-out: AK-based Prestwick Library Screening Results, P. aeruginosa (fold increase in extracellular AK activity)
[5] = planktonic, cutoff for positive-scoring molecules 3-fold increase, read-out: AK-based Prestwick Library Screening Results, E. coli (fold increase in extracellular AK activity)
[6] = planktonic, cutoff for positive-scoring molecules 3-fold increase, read-out: AK-based Prestwick Library Screening Results, S. aureus (fold increase in extracellular AK activity)
[7] = planktonic, cutoff for positive-scoring molecules 3-fold increase, read-out: AK-based Prestwick Library Screening Results, K. pneumoniae (fold increase in extracellular AK activity)
[8] = planktonic, cutoff for positive-scoring molecules 3-fold increase, read-out: AK-based Prestwick Library Screening Results, E. cloacae (fold increase in extracellular AK activity)
[9] = planktonic, cutoff for positive-scoring molecules 3-fold increase, read-out: AK-based Prestwick Library Screening Results, A. baumannii (fold increase in extracellular AK activity)
[10] = cutoff for positive-scoring molecules 3-fold increase

`O=C(O)c1ccccc1OP(=O)(O)O` [Fosfosal] gave a fold induction at 50 µM (E. faecium; [3]) of 0.9, a fold induction at 50 µM (P. aeruginosa; [4]) of 0.7 and a fold induction at 50 µM (E. coli; [5]) of 0.7. For the same compound, the fold induction at 50 µM [1, 6] was 0.7, the fold induction at 50 µM (K. pneumoniae; [7]) was 0.6 and the fold induction at 50 µM (E. cloacae; [8]) was 0.8. For the same compound, the fold induction at 50 µM [2, 9] was 0.8.
`Cc1nnc(SCC2=C(C(=O)O)N3C(=O)[C@@H](NC(=O)Cn4cnnn4)[C@H]3SC2)s1` [Cefazolin sodium salt] showed a fold induction at 50 µM (E. faecium; [3]) of 0.9, a fold induction at 50 µM (P. aeruginosa; [4]) of 0.7 and a fold induction at 50 µM (E. coli; [5]) of 16.5. It also gave a fold induction at 50 µM [1, 6] of 3.1, a fold induction at 50 µM (K. pneumoniae; [7]) of 3.6 and a fold induction at 50 µM (E. cloacae; [8]) of 0.9. The fold induction at 50 µM [2, 9] was 0.5.
In the case of `NCCC(=O)NCCc1c[nH]cn1` [Carcinine], the fold induction at 50 µM (E. faecium; planktonic E. faecium, […], read-out: AK-based Prestwick Library Screening Results, E. faecium (increase in extracellular AK activity)) was 0.9, the fold induction at 50 µM (P. aeruginosa; planktonic P. aeruginosa, […], read-out: AK-based Prestwick Library Screening Results, P. aeruginosa (increase in extracellular AK activity)) was 0.8 and the fold induction at 50 µM (E. coli; planktonic E. coli, […], read-out: AK-based Prestwick Library Screening Results, E. coli (increase in extracellular AK activity)) was 0.8. The fold induction at 50 µM ([1]; planktonic S. aureus, […], read-out: AK-based Prestwick Library Screening Results, S. aureus (increase in extracellular AK activity)) was 0.7, the fold induction at 50 µM (K. pneumoniae; planktonic K. pneumoniae, […], read-out: AK-based Prestwick Library Screening Results, K. pneumoniae (increase in extracellular AK activity)) was 0.6 and the fold induction at 50 µM (E. cloacae; planktonic E. cloacae, […], read-out: AK-based Prestwick Library Screening Results, E. cloacae (increase in extracellular AK activity)) was 0.8. The fold induction at 50 µM ([2]; planktonic A. baumannii, […], read-out: AK-based Prestwick Library Screening Results, A. baumannii (increase in extracellular AK activity)) was 0.8.
In the case of `N[C@@H](C(=O)N[C@@H]1C(=O)N2C(C(=O)O)=C(Cl)CS[C@H]12)c1ccccc1` [Cefaclor], the fold induction at 50 µM (E. faecium; planktonic E. faecium, cutoff for positive-scoring molecules 3-fold increase, read-out: AK-based Prestwick Library Screening Results, E. faecium (increase in extracellular AK activity)) was 0.9, the fold induction at 50 µM (P. aeruginosa; planktonic P. aeruginosa, cutoff for positive-scoring molecules 3-fold increase, read-out: AK-based Prestwick Library Screening Results, P. aeruginosa (increase in extracellular AK activity)) was 0.5 and the fold induction at 50 µM (E. coli; planktonic E. coli, cutoff for positive-scoring molecules 3-fold increase, read-out: AK-based Prestwick Library Screening Results, E. coli (increase in extracellular AK activity)) was 10.7. The fold induction at 50 µM ([1]; planktonic S. aureus, cutoff for positive-scoring molecules 3-fold increase, read-out: AK-based Prestwick Library Screening Results, S. aureus (increase in extracellular AK activity)) was 0.5, the fold induction at 50 µM (K. pneumoniae; planktonic K. pneumoniae, cutoff for positive-scoring molecules 3-fold increase, read-out: AK-based Prestwick Library Screening Results, K. pneumoniae (increase in extracellular AK activity)) was 2.5 and the fold induction at 50 µM (E. cloacae; planktonic E. cloacae, cutoff for positive-scoring molecules 3-fold increase, read-out: AK-based Prestwick Library Screening Results, E. cloacae (increase in extracellular AK activity)) was 0.7. It also gave a fold induction at 50 µM ([2]; planktonic A. baumannii, cutoff for positive-scoring molecules 3-fold increase, read-out: AK-based Prestwick Library Screening Results, A. baumannii (increase in extracellular AK activity)) of 1.5.
Work on `COC(=O)Nc1nc2ccc(Sc3ccccc3)cc2[nH]1` [Fenbendazole] yielded a fold induction at 50 µM (E. faecium; planktonic E. faecium, 384-well, cutoff for positive-scoring molecules 3-fold increase, read-out: AK-based Prestwick Library Screening Results: E. faecium (increase in extracellular AK activity)) of 0.9, a fold induction at 50 µM (P. aeruginosa; planktonic P. aeruginosa, 384-well, cutoff for positive-scoring molecules 3-fold increase, read-out: AK-based Prestwick Library Screening Results: P. aeruginosa (increase in extracellular AK activity)) of 0.9 and a fold induction at 50 µM (E. coli; planktonic E. coli, 384-well, cutoff for positive-scoring molecules 3-fold increase, read-out: AK-based Prestwick Library Screening Results: E. coli (increase in extracellular AK activity)) of 0.9. The fold induction at 50 µM ([1]; planktonic S. aureus, 384-well, cutoff for positive-scoring molecules 3-fold increase, read-out: AK-based Prestwick Library Screening Results: S. aureus (increase in extracellular AK activity)) was 0.6, the fold induction at 50 µM (K. pneumoniae; planktonic K. pneumoniae, 384-well, cutoff for positive-scoring molecules 3-fold increase, read-out: AK-based Prestwick Library Screening Results: K. pneumoniae (increase in extracellular AK activity)) was 0.7 and the fold induction at 50 µM (E. cloacae; planktonic E. cloacae, 384-well, cutoff for positive-scoring molecules 3-fold increase, read-out: AK-based Prestwick Library Screening Results: E. cloacae (increase in extracellular AK activity)) was 1.3. For the same compound, the fold induction at 50 µM ([2]; planktonic A. baumannii, 384-well, cutoff for positive-scoring molecules 3-fold increase, read-out: AK-based Prestwick Library Screening Results: A. baumannii (increase in extracellular AK activity)) was 0.9.
For `CC[N+](C)(CC)CCC[n+]1c(-c2ccccc2)c2cc(N)ccc2c2ccc(N)cc21.[I-].[I-]` [Propidium iodide], the “AK-based Prestwick Library Screening Results, E. faecium (fold increase in extracellular AK activity)” value (E. faecium; [10]) was 0.8, the “AK-based Prestwick Library Screening Results, P. aeruginosa (fold increase in extracellular AK activity)” value (P. aeruginosa; [10]) was 1.0 and the “AK-based Prestwick Library Screening Results, E. coli (fold increase in extracellular AK activity)” value (E. coli; [10]) was 1.3. For the same compound, the “AK-based Prestwick Library Screening Results, S. aureus (fold increase in extracellular AK activity)” value [1, 10] was 1.4, the “AK-based Prestwick Library Screening Results, K. pneumoniae (fold increase in extracellular AK activity)” value (K. pneumoniae; [10]) was 0.8 and the “AK-based Prestwick Library Screening Results, E. cloacae (fold increase in extracellular AK activity)” value (E. cloacae; [10]) was 1.6. The “AK-based Prestwick Library Screening Results, A. baumannii (fold increase in extracellular AK activity)” value [2, 10] was 1.1.
For `Cl.OC(CCN1CCCCC1)(c1ccccc1)C1CCCCC1` (centres unmarked) [Trihexyphenidyl-D,L Hydrochloride], the “AK-based Prestwick Library Screening Results, E. faecium (fold increase in extracellular AK activity)” value (E. faecium; [10]) was 1.1, the “AK-based Prestwick Library Screening Results, P. aeruginosa (fold increase in extracellular AK activity)” value (P. aeruginosa; [10]) was 1.3 and the “AK-based Prestwick Library Screening Results, E. coli (fold increase in extracellular AK activity)” value (E. coli; [10]) was 1.2. For the same compound, the “AK-based Prestwick Library Screening Results, S. aureus (fold increase in extracellular AK activity)” value [1, 10] was 1.4, the “AK-based Prestwick Library Screening Results, K. pneumoniae (fold increase in extracellular AK activity)” value (K. pneumoniae; [10]) was 1.1 and the “AK-based Prestwick Library Screening Results, E. cloacae (fold increase in extracellular AK activity)” value (E. cloacae; [10]) was 1.5. For the same compound, the “AK-based Prestwick Library Screening Results, A. baumannii (fold increase in extracellular AK activity)” value [2, 10] was 1.4.
Compound `CC[N+](C)(C)c1cccc(O)c1` [Edrophonium chloride] has a fold induction at 50 µM (E. faecium; 384-well format, […], read-out: AK-based Prestwick Library Screening Results, E. faecium (increase in extracellular AK activity)) of 0.8, a fold induction at 50 µM (P. aeruginosa; 384-well format, […], read-out: AK-based Prestwick Library Screening Results, P. aeruginosa (increase in extracellular AK activity)) of 0.4 and a fold induction at 50 µM (E. coli; 384-well format, […], read-out: AK-based Prestwick Library Screening Results, E. coli (increase in extracellular AK activity)) of 0.4. The fold induction at 50 µM ([1]; 384-well format, […], read-out: AK-based Prestwick Library Screening Results, S. aureus (increase in extracellular AK activity)) was 0.4, the fold induction at 50 µM (K. pneumoniae; 384-well format, […], read-out: AK-based Prestwick Library Screening Results, K. pneumoniae (increase in extracellular AK activity)) was 0.5 and the fold induction at 50 µM (E. cloacae; 384-well format, […], read-out: AK-based Prestwick Library Screening Results, E. cloacae (increase in extracellular AK activity)) was 0.3. For the same compound, the fold induction at 50 µM ([2]; 384-well format, […], read-out: AK-based Prestwick Library Screening Results, A. baumannii (increase in extracellular AK activity)) was 0.4.
